Assay results from PubChem BioAssay (NCI).
“And” between values parts separate entries of the source, which are not always exact repeats. Identical values can stand only once.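 A five-concentration, 48-hour dose response in 96-well plates underlies each endpoint, interpolated linearly between surrounding concentrations. GI50: concentration for 50% inhibition of growth. At the TGI there is no net growth.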

Legend:
Assay in all cases: DTP human tumour cell line panel, 48 h
A549 NSCLC = tested on: A549 NSCLC
HCC-2998 colon = tested on: HCC-2998 colon
SNB-75 CNS = tested on: SNB-75 CNS
NCI-H23 lung = tested on: NCI-H23 lung
RPMI-8226 leukemia = tested on: RPMI-8226 leukemia
HCT-15 colon = tested on: HCT-15 colon
LOX IMVI melanoma = tested on: LOX IMVI melanoma
MDA-MB-435 = tested on: MDA-MB-435
K-562 leukemia = tested on: K-562 leukemia
SR leukemia = tested on: SR leukemia

SMILES | GI50 (A549 NSCLC) | TGI (A549 NSCLC) | GI50 (HCC-2998 colon) | TGI (HCC-2998 colon) | GI50 (SNB-75 CNS) | TGI (SNB-75 CNS) | GI50 (NCI-H23 lung) | TGI (NCI-H23 lung) | GI50 (RPMI-8226 leukemia) | TGI (RPMI-8226 leukemia) | GI50 (HCT-15 colon) | TGI (HCT-15 colon) | GI50 (LOX IMVI melanoma) | TGI (LOX IMVI melanoma) | GI50 (MDA-MB-435) | TGI (MDA-MB-435) | GI50 (K-562 leukemia) | TGI (K-562 leukemia) | GI50 (SR leukemia) | TGI (SR leukemia)
O=C(NCc1ccncc1)C12CC3CC(C1)CC(c1ccc(Cl)cc1)(C3)C2 | 15 µM | 30.8 µM | 14.3 µM | 29.4 µM | 13.2 µM | 27.2 µM | 14.4 µM | 32.7 µM | 7.59 µM | 71.7 µM | 12.1 µM | 25.2 µM | 15 µM | 30.1 µM | 12.7 µM | 25.3 µM | 6.93 µM | 34.9 µM | 7.98 µM | 35.7 µM
CCCCCCCCCCCCOC1C(C(CC(=O)N2CCN(c3cccc(C(F)(F)F)c3)CC2)NS(=O)(=O)c2cc(Cl)cc(Cl)c2)OC2OC(C)(C)OC21 (stereo not given) | > 100 µM | > 100 µM | > 100 µM | > 100 µM | > 100 µM | > 100 µM | > 100 µM | > 100 µM | > 100 µM | > 100 µM | > 100 µM | > 100 µM | > 100 µM | > 100 µM | > 100 µM | > 100 µM | > 100 µM | > 100 µM | > 100 µM | > 100 µM
COc1cccc2c1c(C1=C(c3cn(C)c4ccccc34)C(=O)NC1=O)cn2C | > 25 µM | > 25 µM | > 25 µM | > 25 µM | > 25 µM | > 25 µM | > 25 µM | > 25 µM | > 25 µM | > 25 µM | > 25 µM | > 25 µM | > 25 µM | > 25 µM | > 13.8 µM | > 25 µM | > 23.9 µM | > 25 µM | > 16.6 µM | > 25 µM
O=C(/C(=C/c1ccc([N+](=O)[O-])cc1)SCc1ccc(F)cc1)c1ccc(Cl)cc1 | > 100 µM | > 100 µM | 5.11 µM | 19 µM | 73 µM | > 100 µM | 11 µM | 68.7 µM | 1.92 µM | 6.36 µM | 2.9 µM | 11.6 µM | 1.73 µM | 3.27 µM | 2.78 µM | 9.49 µM | 3.05 µM | > 100 µM | 2.63 µM | > 100 µM
O=C(NCc1ccco1)c1ccc(NC2=C(Cl)C(=O)N(Cc3ccccc3)C2=O)cc1 | 37.2 µM | > 100 µM | 22.9 µM | 37.4 µM | 41.9 µM | > 100 µM | 13.8 µM | 27.5 µM | 8.52 µM | 23.6 µM | 17.7 µM | 74.4 µM | > 100 µM | > 100 µM | 16.3 µM | 37.6 µM | 21.2 µM | 49.7 µM | 2.21 µM | 7.14 µM
C/C(=C(\c1ccc(OCCN2CCCCCC2)cc1)c1ccc(OC(=O)Cc2ccccc2)cc1)c1ccc(Cl)cc1 | 2.7 µM | 5.41 µM | 2.72 µM | 5.57 µM | 2.3 µM | 5.33 µM | 2.81 µM | 7.13 µM | 1.82 µM | 5.47 µM | 1.79 µM | 4.26 µM | 2.51 µM | 4.77 µM | 2.46 µM | 4.66 µM | 0.77 µM | 12.1 µM | 0.556 µM | 6.87 µM
COc1cnc2c(c1)C(=O)c1c-2n(CCCNC(C)C)c(=O)c2cc(F)ccc12 | 0.0718 µM | 0.239 µM | 0.397 µM | 1.75 µM | 0.219 µM | 1.39 µM | 0.176 µM | 0.676 µM | 0.154 µM | 0.951 µM | 0.163 µM | 1.32 µM | 0.114 µM | 0.249 µM | 0.309 µM | 1.48 µM | 0.129 µM | 1.72 µM | 0.0758 µM | 0.839 µM
O=C1OC(c2ccccc2)(c2cc(Br)c(O)c(Br)c2)c2ccccc21 (stereo not given) | 31.3 µM | > 100 µM | 19.9 µM | 37.8 µM | 20.3 µM | 72 µM | 21.3 µM | 59.1 µM | 28.7 µM | 78.5 µM | 25.8 µM | 76.2 µM | 16.3 µM | 33 µM | 22.6 µM | 77.1 µM | 32.5 µM | > 100 µM | 26 µM | > 100 µM
N#CS.N=C=S.N=C=S.[Cu+2].[NH2-].[NH2-].[NH2-].[NH2-].c1ccc2ncccc2c1 | 20.4 µM | 51.5 µM | 83.9 µM | > 100 µM | 21 µM | 49.9 µM | > 100 µM | > 100 µM | > 100 µM | > 100 µM | > 100 µM | > 100 µM | 43.3 µM | > 100 µM | 19.4 µM | 41.3 µM | > 100 µM | > 100 µM | > 100 µM | > 100 µM
CCCCCCCCCCCCCCCCOP(=O)(O)OP(=O)(O)OCC1OC(n2ccc(N)nc2=O)C(O)C1O (stereo not given) |  | > 100 µM | > 100 µM and 36.8 µM | > 100 µM | > 100 µM | > 100 µM | > 100 µM and 38 µM | > 100 µM |  | > 100 µM |  | > 100 µM | > 100 µM and 28.3 µM | > 100 µM |  | > 100 µM | > 100 µM and 41.8 µM | > 100 µM |  | > 100 µM
CNC(=O)Oc1cc(C)c(/C=C/c2cncc(C(=O)NC)c2)c(C)c1 | > 25 µM | > 25 µM | > 25 µM | > 25 µM | 9.45 µM | 24.6 µM | > 25 µM | > 25 µM | > 25 µM | > 25 µM | > 25 µM | > 25 µM | 15.9 µM | > 25 µM | 8.44 µM | > 25 µM | 15.3 µM | > 25 µM | > 20.4 µM | > 25 µM
CCN(CC)CCCC(C)N=c1cc(Nc2cc(=NC(C)CCCN(CC)CC)c3cc(OC)ccc3o2)oc2ccc(OC)cc12 (stereo not given) | 0.849 µM | 1.87 µM | 1.85 µM | 7.14 µM | 0.829 µM | 2.93 µM | 3.18 µM | 12.7 µM | 1.24 µM | 3.41 µM | 0.851 µM | 2.33 µM | 1.02 µM | 2.29 µM | 0.871 µM | 1.68 µM | 1.19 µM | 4.76 µM | 0.943 µM | 3.02 µM
CC(=O)Oc1cc2c(OC(C)=O)c(-c3c(C)cc4c(C(C)C)c(OC(C)=O)c(OC(C)=O)cc4c3OC(C)=O)c(C)cc2c(C(C)C)c1OC(C)=O | 14.7 µM and 5.12 µM and 9.61 µM | 30.7 µM and 9.92 µM and 22.2 µM | 4.23 µM and 5.12 µM and 18.4 µM | 8.3 µM and 9.51 µM and 34.3 µM | 2.32 µM and 13.7 µM and 16.3 µM | 24.9 µM and > 52.7 µM and 62.8 µM | 5.06 µM and 5.46 µM and 8.84 µM | 9.63 µM and 9.93 µM and 19.1 µM | 5.36 µM and 5.79 µM and 7.94 µM | 14 µM and 15.4 µM and 20.4 µM | 4.94 µM and 5.21 µM and 7.97 µM | 9.98 µM and 10.5 µM and 18.2 µM | 4.4 µM and 5.26 µM and 17.3 µM | 8.52 µM and 11.3 µM and 32 µM | 8.13 µM and 6.8 µM and 10.1 µM | 26.8 µM and 14.1 µM and 22.7 µM | 21.3 µM and 6.13 µM and 9.67 µM | 63.1 µM and > 21.4 µM and 25.8 µM | 28.3 µM and 6.93 µM | > 100 µM and 21.4 µM
COc1cc(-c2ncn(/C=C\C(=O)OC(C)C)n2)cc(C(F)(F)F)c1 | 0.0609 µM and 0.0783 µM | 11.6 µM and 8.63 µM | 0.102 µM and 0.659 µM | 1.41 µM and 3.82 µM | 0.0748 µM and 0.121 µM | 0.999 µM and 0.904 µM | 0.0663 µM and 0.103 µM | 14.1 µM and 12.1 µM | 0.036 µM and 0.0286 µM | > 36.1 µM and 4.66 µM | 0.0715 µM and 0.0543 µM | 7.93 µM and 6.39 µM | 0.0271 µM and 0.0287 µM | 0.39 µM and 0.524 µM | 0.0437 µM and 0.0485 µM | 0.702 µM and 0.457 µM | 0.051 µM and 0.0608 µM | 10.2 µM and 16.2 µM | 0.0354 µM | 14.3 µM and > 100 µM
COc1ccc2c(c1OC)OCC(CN(C)C)C2=O (stereo not given) |  | > 63.9 µM |  | 33.7 µM |  | 52.4 µM |  | 35.8 µM |  | 8.56 µM |  | 36.5 µM |  | 31.2 µM |  | 34.3 µM |  | 10.5 µM |  | 10.5 µM
O=S(=O)(Nc1cc(Cl)ccc1Cl)c1ccc(-c2cnc(C3CC3)o2)cc1 | 1.66 µM | > 100 µM | 3.03 µM | 25.2 µM | 0.475 µM | 3.88 µM | 2.84 µM | 67.2 µM | 2.44 µM | > 100 µM | 0.608 µM | > 100 µM | 3.3 µM | > 100 µM | 0.346 µM | 1.49 µM | 0.4 µM | > 100 µM | 0.551 µM | > 100 µM
COc1cc(OC)c(NC(=O)c2cc3ccccc3cc2O)cc1Cl | 3.38 µM | 10.5 µM | 3.73 µM | 13.8 µM | 1.59 µM | 15 µM | 2.38 µM | 7.61 µM | 2.82 µM | 10.9 µM | 3.38 µM | 19.4 µM | 2.69 µM | 9.37 µM | 2.84 µM | 9.69 µM | 4.42 µM | > 100 µM | 5.25 µM | 91.5 µM
